The source made the active and inactive calls. No cut-off for these calls is given here. Numbered stars: 1 amine (or outer) side, 2 acyl side, 3 side chain; on linkers, the order of the positions; unused ones are H or OH. Bridge positions count the residues as written; N and C are the ends. Square brackets hold non-standard residues; d marks the D form. Peptide text beside a SMILES is read from it. * marks the point of attachment. hTyr(3S-OH,4S-OH,3'-OSO3H) = N[C@H](C(=O)O)[C@H](O)[C@@H](O)c1ccc(O)c(OS(=O)(=O)O)c1; Orn(4R-OH,5R-OH) = O=C([C@H](C[C@@H](O)[C@@H](O)N[*:3])N[*:1])[*:2]; Pro(3S-OH,4S-Me) = C[C@H]1CN[C@H](C(=O)O)[C@H]1O; X1 = CCCCCOc1ccc(-c2cc(-c3ccc(C(=O)*)cc3)no2)cc1; Gln(3R-OH) = NC(=O)C[C@@H](O)[C@H](N)C(=O)O; Hyp = O=C(O)[C@@H]1C[C@@H](O)CN1
Key:
[1] = system: Aspergillus fumigatus; assay: Antifungal activity against nongerminated Aspergillus fumigatus assessed as lowest drug concentration that produced short, stubby and highly branched hyphae after 48 hrs by microscopic analysis; type: functional; details: read-out: MEC
[2] = system: Aspergillus fumigatus; assay: Antifungal activity against germinated Aspergillus fumigatus assessed as lowest drug concentration that produced short, stubby and highly branched hyphae after 48 hrs by microscopic analysis; type: functional; details: read-out: MEC
[3] = system: Aspergillus fumigatus; assay: Ratio of log2 of MEC for germinated Aspergillus fumigatus to log2 of MEC for nongerminated Aspergillus fumigatus; type: functional
[4] = system: Aspergillus terreus; assay: Antifungal activity against nongerminated Aspergillus terreus assessed as lowest drug concentration that produced short, stubby and highly branched hyphae after 48 hrs by microscopic analysis; type: functional; details: read-out: MEC
[5] = system: Aspergillus terreus; assay: Antifungal activity against germinated Aspergillus terreus assessed as lowest drug concentration that produced short, stubby and highly branched hyphae after 48 hrs by microscopic analysis; type: functional; details: read-out: MEC
[6] = system: Aspergillus terreus; assay: Ratio of log2 of MEC for germinated Aspergillus terreus to log2 of MEC for nongerminated Aspergillus terreus; type: functional
[7] = system: Aspergillus flavus; assay: Antifungal activity against nongerminated Aspergillus flavus assessed as lowest drug concentration that produced short, stubby and highly branched hyphae after 48 hrs by microscopic analysis; type: functional; details: read-out: MEC
[8] = system: Aspergillus flavus; assay: Antifungal activity against germinated Aspergillus flavus assessed as lowest drug concentration that produced short, stubby and highly branched hyphae after 48 hrs by microscopic analysis; type: functional; details: read-out: MEC
[9] = system: Aspergillus flavus; assay: Ratio of log2 of MEC for germinated Aspergillus flavus to log2 of MEC for nongerminated Aspergillus flavus; type: functional
[10] = system: Aspergillus fumigatus; assay: Antifungal activity against nongerminated Aspergillus fumigatus assessed as short, stubby and highly branched hyphae after 48 hrs by microscopy analysis; type: functional, organism-based
[11] = system: Aspergillus fumigatus; assay: Effect on nongerminated Aspergillus fumigatus metabolic activity assessed as drug concentration at which fungal metabolic activity occurs after 2 hrs by XTT assay; type: functional
[12] = system: Aspergillus fumigatus; assay: Effect on germinated Aspergillus fumigatus metabolic activity assessed as drug concentration at which fungal metabolic activity occurs after 2 hrs by XTT assay; type: functional
[13] = system: Aspergillus fumigatus; assay: Effect on Aspergillus fumigatus metabolic activity assessed number of twofold drug dilutions required for germinated fungal metabolic activity to nongerminated fungal metabolic activity; type: functional
[14] = system: Aspergillus terreus; assay: Effect on nongerminated Aspergillus terreus metabolic activity assessed as drug concentration at which fungal metabolic activity occurs after 2 hrs by XTT assay; type: functional
[15] = system: Aspergillus terreus; assay: Effect on germinated Aspergillus terreus metabolic activity assessed as drug concentration at which fungal metabolic activity occurs after 2 hrs by XTT assay; type: functional
[16] = system: Aspergillus terreus; assay: Effect on Aspergillus terreus metabolic activity assessed number of twofold drug dilutions required for germinated fungal metabolic activity to nongerminated fungal metabolic activity; type: functional
[17] = system: Aspergillus flavus; assay: Effect on nongerminated Aspergillus flavus metabolic activity assessed as drug concentration at which fungal metabolic activity occurs after 2 hrs by XTT assay; type: functional
[18] = system: Aspergillus flavus; assay: Effect on germinated Aspergillus flavus metabolic activity assessed as drug concentration at which fungal metabolic activity occurs after 2 hrs by XTT assay; type: functional
[19] = system: Aspergillus flavus; assay: Effect on Aspergillus flavus metabolic activity assessed number of twofold drug dilutions required for germinated fungal metabolic activity to nongerminated fungal metabolic activity; type: functional
[20] = system: Aspergillus fumigatus; assay: Induction of maximal metabolic inhibition in nongerminated Aspergillus fumigatus assessed as minimal metabolic activity Ymin after 2 hrs by XTT assay; type: functional; set-up: scale not given: the % may be the effect or the level left
[21] = system: Aspergillus fumigatus; assay: Induction of maximal metabolic inhibition in germinated Aspergillus fumigatus assessed as minimal metabolic activity Ymin after 2 hrs by XTT assay; type: functional; set-up: scale not given: the % may be the effect or the level left
[22] = system: Aspergillus terreus; assay: Induction of maximal metabolic inhibition in nongerminated Aspergillus terreus assessed as minimal metabolic activity Ymin after 2 hrs by XTT assay; type: functional; set-up: scale not given: the % may be the effect or the level left
[23] = system: Aspergillus terreus; assay: Induction of maximal metabolic inhibition in germinated Aspergillus terreus assessed as minimal metabolic activity Ymin after 2 hrs by XTT assay; type: functional; set-up: scale not given: the % may be the effect or the level left
[24] = system: Aspergillus flavus; assay: Induction of maximal metabolic inhibition in nongerminated Aspergillus flavus assessed as minimal metabolic activity Ymin after 2 hrs by XTT assay; type: functional; set-up: scale not given: the % may be the effect or the level left
[25] = system: Aspergillus flavus; assay: Induction of maximal metabolic inhibition in germinated Aspergillus flavus assessed as minimal metabolic activity Ymin after 2 hrs by XTT assay; type: functional; set-up: scale not given: the % may be the effect or the level left
[26] = system: Aspergillus fumigatus; assay: Antifungal activity against nongerminated Aspergillus fumigatus assessed as absence of visual fungal growth at 128 ug/mL; type: functional, organism-based
[27] = system: Aspergillus fumigatus; assay: Antifungal activity against germinated Aspergillus fumigatus assessed as absence of visual fungal growth at 128 ug/mL; type: functional, organism-based
[28] = system: Aspergillus terreus; assay: Antifungal activity against nongerminated Aspergillus terreus assessed as absence of visual fungal growth at 128 ug/mL; type: functional, organism-based
[29] = system: Aspergillus terreus; assay: Antifungal activity against germinated Aspergillus terreus assessed as absence of visual fungal growth at 128 ug/mL; type: functional, organism-based
[30] = system: Aspergillus flavus; assay: Antifungal activity against nongerminated Aspergillus flavus assessed as absence of visual fungal growth at 128 ug/mL; type: functional, organism-based
[31] = system: Aspergillus flavus; assay: Antifungal activity against germinated Aspergillus flavus assessed as absence of visual fungal growth at 128 ug/mL; type: functional, organism-based
[32] = system: Aspergillus fumigatus; assay: Antifungal activity against nongerminated Aspergillus fumigatus assessed as absence of visual fungal growth at 64 ug/mL; type: functional, organism-based
[33] = system: Aspergillus fumigatus; assay: Antifungal activity against germinated Aspergillus fumigatus assessed as absence of visual fungal growth at 64 ug/mL; type: functional, organism-based
[34] = system: Aspergillus terreus; assay: Antifungal activity against nongerminated Aspergillus terreus assessed as absence of visual fungal growth at 64 ug/mL; type: functional, organism-based
[35] = system: Aspergillus terreus; assay: Antifungal activity against germinated Aspergillus terreus assessed as absence of visual fungal growth at 64 ug/mL; type: functional, organism-based
[36] = system: Aspergillus flavus; assay: Antifungal activity against nongerminated Aspergillus flavus assessed as absence of visual fungal growth at 64 ug/mL; type: functional, organism-based
[37] = system: Aspergillus flavus; assay: Antifungal activity against germinated Aspergillus flavus assessed as absence of visual fungal growth at 64 ug/mL; type: functional, organism-based

CCCCCOc1ccc(-c2cc(-c3ccc(C(=O)N[C@H]4C[C@@H](O)[C@@H](O)NC(=O)[C@@H]5[C@@H](O)[C@@H](C)CN5C(=O)[C@H]([C@H](O)CC(N)=O)NC(=O)[C@H]([C@H](O)[C@@H](O)c5ccc(O)c(OS(=O)(=O)O)c5)NC(=O)[C@@H]5C[C@@H](O)CN5C(=O)[C@H]([C@@H](C)O)NC4=O)cc3)no2)cc1 [MICAFUNGIN] (X1-[Orn(4R-OH,5R-OH)]T[Hyp][hTyr(3S-OH,4S-OH,3'-OSO3H)][Gln(3R-OH)][Pro(3S-OH,4S-Me)]; lactam 1-C)
minimal effective concentration [1]: 0.06 µg/mL | minimal effective concentration [2]: 0.25 µg/mL | Ratio [3]: 1 | minimal effective concentration [4]: 0.12 µg/mL | minimal effective concentration [5]: 0.25 µg/mL | Ratio [6]: 1 | minimal effective concentration [7]: 0.12 µg/mL | minimal effective concentration [8]: 0.5 µg/mL | Ratio [9]: 2 | Activity [10]: Active | EC5 [11]: 0.04 µg/mL | EC5 [12]: 0.05 µg/mL | Ratio [13]: 0.67 | EC5 [14]: 0.07 µg/mL | EC5 [15]: 0.14 µg/mL | Ratio [16]: 2.04 | EC5 [17]: 0.05 µg/mL | EC5 [18]: 0.14 µg/mL | Ratio [19]: 1.57 | Activity [20]: 25% | Activity [21]: 29% | Activity [22]: 29% | Activity [23]: 37% | Activity [24]: 17% | Activity [25]: 20% | Activity [26]: inactive | Activity [27]: inactive | Activity [28]: inactive | Activity [29]: inactive | Activity [30]: inactive | Activity [31]: inactive | Activity [32]: inactive | Activity [33]: inactive | Activity [34]: inactive | Activity [35]: inactive | Activity [36]: inactive | Activity [37]: inactive
